# Source: US4520022A, “Substituted vinyl cephalosporins” (priority 1983, dated 1985)
# Where “and” joins values, the source holds several entries; their conditions need not be identical. Identical values can stand only once. Like-named read-outs stand apart in the source and are kept apart here.
# How the values were obtained:
# [1] = system: Gp Ib: S. aureus 193, BX-1633-2 A9606, A15092, Russell, A9602; settings: Staphylococcus aureus
# [2] = system: Gp Ia: S. aureus Smith A9537, A9497, Terajima, A9534, A9601; settings: Staphylococcus aureus
# C. perfringens A9645 = assay: microbe, parasite or virus in culture; format: cell-based; settings: Clostridium perfringens
# E. coli Juhl = assay: Protective dose, mice infected with lethal inoculum, oral treatment, E. coli Juhl; format: in vivo; settings: for ED50: Escherichia coli, po, 120 h
# H. influenza A9729 = assay: Protective dose PD50, mice infected with lethal inoculum, oral treatment, H. influenza A9729; format: in vivo; settings: Mus musculus, 120 h
# From the text: The structure activity correlations drawn from the foregoing in vitro studies are born out by the results of in vivo studies in mice. Table 4 is a tabulation of the protective doses for mice infected with a lethal inoculum of a bacteria. Two different bacteria were employed in the studies, one a Gram+ organism and the other a Gram- organism. The protective dose (PD50) is that dose which when administered to a group of infected mice results in 50% survival after five days. Normally untreated infected mice die within three days following injection of the lethal inoculum.
# Protective Dose PD50 for Mice Infected with Lethal Inoculum
# S. pneumoniae = assay: In vitro activity against Streptococci (MIC), S. pneumoniae; format: cell-based; settings: Streptococcus pneumoniae
# S. pyogenes A20201 = assay: Protective dose PD50, mice infected with lethal inoculum, oral treatment, S. pyogenes A20201; format: in vivo; settings: Streptococcus pyogenes, 120 h
# S. aureus Smith = assay: Protective dose, mice infected with lethal inoculum, oral treatment, S. aureus Smith; format: in vivo; settings: for ED50: Staphylococcus aureus, po, 120 h
# S. aureus BX-1633 = assay: Protective dose PD50, mice infected with lethal inoculum, oral treatment, S. aureus BX-1633; format: in vivo; settings: Staphylococcus aureus, BX1633, 120 h
# H. influenzae = assay: In vitro activity against Haemophilis (MIC), H. influenzae; format: cell-based; settings: Haemophilus influenzae, Compound 9 lot 2, read-out: MIC
# P. mirabilis A9554 = assay: Protective dose PD50, mice infected with lethal inoculum, oral treatment, P. mirabilis A9554; format: in vivo
# B. fragilis = assay: In vitro activity against anaerobes (MIC), B. fragilis; format: cell-based; settings: Bacteroides fragilis
# Gp, rods; Gp, cocci = assay: microbe, parasite or virus in culture; format: cell-based, C. difficile; C. perfringens; P. acnes; P. anaerobius; settings: read-out: MIC, Geometric Mean
# C. difficile A21675 = assay: In vitro activity against anaerobes (MIC), C. difficile; format: cell-based; settings: Clostridioides difficile; Gp rods; C. difficile A21675; clindamycin resistant; read-out: MIC
# S. pyogenes = assay: In vitro activity against Streptococci (MIC), S. pyogenes; format: cell-based
# in vivo = settings: mouse; for half-life: T1/2
# bacteria = assay: Antibacterial activity, general statements; settings: in words
# [3] = Metabolism in the rat (urine after oral administration); format: in vivo, Wister rats; settings: oral 100 mg/kg; urine 24 hours
# Description: Refer to Procedure 43. Compound No. 37 is the 3,4-dihydroxyphenyl compound and Compound No. 42 is the 3-methoxy-4-hydroxyphenyl compound.
# Six male Wister rats (400-600 g) were placed in steel metabolic cages after the oral administration of Compound 37 at the dose of 100 mg/kg and urine was collected over a period of 24 hours. The rats were fed their regular diet and given water during the experiment.
# The urine (ca. 90 ml) was adjusted to pH 3 with N hydrochloric acid and filtered to remove a precipitate. The filtrate was chromatographed on a column packed with 300 ml of HP-20 by eluting with 2 L of water and 2 L of 30% methanol under monitoring the HPLC. The fractions containing the bioactive components of the 30% methanol eluate were collected, concentrated to 10 ml and lyophilized to give 390 mg of brown solid. A solution of the solid in 20 ml of water was chromatographed on a column packed with 200 ml of the packing of a prepPAK-C18 cartridge (Waters) by eluting with water, 5% methanol, and 10% methanol, successively. The first half of the 5% methanol eluate was concentrated to 5 ml and lyophilized to give 44 mg of Compound 37 (70% pure) containing impurities derived from urine. The second half of the 5% methanol eluate was concentrated to 5 ml and lyophilized to give 36 mg of product, which was a mixture of Compound 37, Compound 42, and impurities derived from urine. […]
# [4] = mouse, in vivo, po
# [5] = read-out: Minimum Inhibitory Concentration Gp Ib, Mueller-Hinton agar, run 2, average of five organisms
# [6] = read-out: Minimum Inhibitory Concentration Gp Ia, Mueller-Hinton agar, run 2, average of five organisms
# [7] = oral, value in parentheses: cephalexin in the same run as the compound of that line, 7200 min
smiles,measurement,setting,value
CC1=C(C(=O)O)N2C(=O)[C@@H](NC(=O)[C@H](N)c3ccccc3)[C@H]2SC1 [Cephalexin],MIC,"[1]; read-out: Minimum Inhibitory Concentration Gp Ib, Mueller-Hinton agar, run 1, average of five organisms",4.1 µg/mL
same,MIC,[1]; [5],3.6 µg/mL
same,MIC,"[2]; read-out: Minimum Inhibitory Concentration Gp Ia, Mueller-Hinton agar, run 1, average of five organisms",1.2 µg/mL
same,MIC,[2]; [6],0.7 µg/mL
same,MIC,C. perfringens A9645,12.5 µg/mL
same,ED50,"E. coli Juhl; read-out: Protective dose (PD50) of cephalexin in the same run, E. coli Juhl, oral, value in parentheses: cephalexin in the same run as the compound of that line",8.4 mg/kg
same,"Protective dose (PD50) of cephalexin in the same run, E. coli Juhl",E. coli Juhl; [7],8.2 mg/kg
same,ED50,H. influenza A9729,18 mg/kg
same,MIC,S. pneumoniae,3.1 µg/mL
same,MIC,"S. pneumoniae; S. pneumoniae A9585, Compound 9 lot 2",3.1 µg/mL
same,MIC,"S. pneumoniae; S. pneumoniae A15069, Compound 9 lot 2",3.1 µg/mL
same,MIC,"S. pneumoniae; S. pneumoniae A20759, Compound 9 lot 2",3.1 µg/mL
same,MIC,"S. pneumoniae; S. pneumoniae Type I, Compound 9 lot 2",3.1 µg/mL
same,MIC,"S. pneumoniae; S. pneumoniae Type III, Compound 9 lot 2",3.1 µg/mL
same,MIC,"S. pneumoniae; read-out: MIC, Geometric Mean",3.1 µg/mL
same,ED50,S. pyogenes A20201,0.74 mg/kg
same,ED50,"S. aureus Smith; read-out: Protective dose (PD50) of cephalexin in the same run, S. aureus Smith, oral, value in parentheses: cephalexin in the same run as the compound of that line",0.31 mg/kg
same,"Protective dose (PD50) of cephalexin in the same run, S. aureus Smith",S. aureus Smith; [7],0.27 mg/kg and 0.22 mg/kg
same,ED50,S. aureus BX-1633,17 mg/kg
same,MIC,H. influenzae; H. influenzae A22157,3.1 µg/mL
same,MIC,H. influenzae; H. influenzae A22481,3.1 µg/mL
same,MIC,H. influenzae; H. influenzae A22491,3.1 µg/mL
same,Protective Dose PD50,P. mirabilis A9554,12.5
same,MIC,"B. fragilis; B. fragilis A20928-1, A21900, A20935, β-lactamase (-), read-out: MIC, Geometric Mean",9.9 µg/mL
same,MIC,"B. fragilis; B. fragilis A20928-1, β-lactamase (-)",12.5 µg/mL
same,MIC,"B. fragilis; B. fragilis A22021, β-lactamase (+), read-out: MIC",100 µg/mL
same,MIC,"B. fragilis; B. fragilis A22053, A22021, A22693, β-lactamase (+), read-out: MIC, Geometric Mean",> 75 µg/mL
same,MIC,"B. fragilis; B. fragilis A22053, β-lactamase (+), read-out: MIC",25 µg/mL
same,MIC,"B. fragilis; B. fragilis A22533, β-lactamase (+), read-out: MIC",> 100 µg/mL
same,MIC,"B. fragilis; B. fragilis A22693, β-lactamase (+), read-out: MIC",> 100 µg/mL
same,MIC,"B. fragilis; B. fragilis A22695, A22533, β-lactamase (+), read-out: MIC, Geometric Mean",> 100 µg/mL
same,MIC,"B. fragilis; B. fragilis A22695, β-lactamase (+), read-out: MIC",100 µg/mL
same,MIC,"Gp, rods; Gp, cocci",11 µg/mL
same,MIC,C. difficile A21675,100 µg/mL
same,MIC,"S. pyogenes; S. pyogenes A9604, Compound 9 lot 2",0.8 µg/mL
same,MIC,"S. pyogenes; S. pyogenes A15040, Compound 9 lot 2",0.8 µg/mL
same,MIC,"S. pyogenes; S. pyogenes A20065, Compound 9 lot 2",0.8 µg/mL
same,MIC,"S. pyogenes; S. pyogenes A20201, Compound 9 lot 2",0.8 µg/mL
same,MIC,"S. pyogenes; S. pyogenes Dick, Compound 9 lot 2",0.8 µg/mL
same,MIC,S. pyogenes; Streptococcus pyogenes,0.8 µg/mL
same,MIC,"S. pyogenes; Streptococcus pyogenes, read-out: MIC, Geometric Mean",0.8 µg/mL
"C/C=C\C1=C(C(=O)O)N2C(=O)[C@@H](NC(=O)[C@H](N)c3ccc(O)c(O)c3)[C@H]2SC1 [Compound 37, 7β-[D(-)-2-Amino-2-(3,4-dihydroxyphenyl)acetamido]-3-[(Z)-1-propen-1-yl]-3-cephem-4-carboxylic Acid]",MIC,[1]; [5],7.2 µg/mL
same,MIC,"[1]; read-out: Minimum inhibitory Concentration Gp Ib, Test Medium Comparison, A: Mueller-Hinton agar, average values",6.3 µg/mL
same,MIC,"[1]; read-out: Minimum inhibitory Concentration Gp Ib, Test Medium Comparison, B: Nutrient agar, average values",0.61 µg/mL
same,MIC,[2]; [6],6.3 µg/mL
same,MIC,"[2]; read-out: Minimum inhibitory Concentration Gp Ia, Test Medium Comparison, A: Mueller-Hinton agar, average values",4.8 µg/mL
same,MIC,"[2]; read-out: Minimum inhibitory Concentration Gp Ia, Test Medium Comparison, B: Nutrient agar, average values",0.4 µg/mL
same,AUC,"in vivo; im, 20 mg/kg, AUC*",233 µg·h/mL
same,Cmax,"in vivo; im, 20 mg/kg",86 µg/mL
same,half-life,"in vivo; im, 20 mg/kg",1.2 h
same,AUC,"in vivo; po, 20 mg/kg, AUC*",270 µg·h/mL
same,Cmax,"in vivo; po, 20 mg/kg",58 µg/mL
same,half-life,"in vivo; po, 20 mg/kg",5.1 h
same,AUC,"in vivo; po, 100 mg/kg, AUC",666 µg·h/mL
same,Cmax,"in vivo; po, 100 mg/kg",180 µg/mL
same,half-life,"in vivo; po, 100 mg/kg",2.5 h
same,ED50,"E. coli Juhl; oral, 50% survival for 5 days, groups of 5 mice, read-out: Protective dose (PD50), E. coli Juhl",0.44 mg/kg
same,activity against the Gram- infection,E. coli Juhl; in words,more active against the Gram- infection
same,ED50,"S. aureus Smith; oral, 50% survival for 5 days, groups of 5 mice, read-out: Protective dose (PD50), S. aureus Smith",0.13 mg/kg
same,antibacterial activity,bacteria,highly active substance against both the Gram+ and Gram- bacteria
same,metabolism in the rat,[3],metabolized in the rat to Compound No. 42
same,blood levels following oral administration,[4],exceptionally high blood levels
